Patent publication US6593137B1, “Antibodies specific for fullerenes” (The Trustees of Columbia University in the City of New York, priority 1999, dated 2003)

How the values were obtained:
[1] = tested on: human keratinocytes and fibroiblasts; details: cited from earlier work
Sprague-Dawley rats = assay: γ-camera imaging study; assay type: in vivo; details: IP
Protocol: The biodistribution in mice of hydroxylated lanthanide-C82 encapsulates is under current investigation. The results presented here are regarded as preliminary as the sample is still small. Studies continue under a NIH Phase I grant. The neutron irradiated samples, along with a ^166Ho^3+ control sample, were used to perform a γ-camera imaging study on four 300 g Sprague-Dawley rats. Two rats were injected intraperitoneally (IP) with 54 and 18 μCi of ^166Ho activity from samples containing irradiated Ho-metallofullerois. Two control studies were performed by IP administration of approximately 660 μCi of ^166Ho^3+ in a 1% sodium citrate buffer. The anesthetized rats were scanned side-by-side on a single stage with a γ-camera starting 1 hour after injection and periodically thereafter over the ensuing 48 hours.

Air sensitivity = assay type: physicochemical
Text: While previous work reported in the literature performed HPLC under aerobic conditions, (see for example Funasaka et al. 1995) these studies determined that anaerobic controls better preserved the fraction of Gd@C82 in solution. […] The fraction containing the Gd@C82 was identified using MS. The solubility of fullerenes in o-xylene is about three times that of toluene and this greatly increases the ratio of fullerenes in solution to those retained on the stationary phase. Therefore, the capacity or amount of fullerenes purified per injection was very large. Each injection contained 2 ml of saturated fullerene o-xylene solution (about 30 mg of fullerenes).

[2] = tested on: anti-fullerene antibodies; assay: ELISA competitive inhibition of antibody binding to 1-RSA; parameters: species or system BALB/c mice
Protocol: After a total of three immunizations at 3-week intervals, confirmation of an immune response was determined by direct ELISA in which polystyrene plates (Corning) were coated with the 1-RSA conjugate (0.5 mg/ml in 0.1 M NaHCO3, pH 9), and binding of preimmune and immune sera were determined by standard procedures. Development was with horseradish peroxidase-labeled goat anti-mouse IgG (Sigma), which tested negative for crossreaction with an IgM preparation. The substrate used was o-phenylenediamine.
(§1) Specificity of the resp)onse was determined by two procedures: double diffusion in agar (22) and competitive inhibition, as determined by ELISA using RSA and BSA conjugates of the fullerenes, as well as the oligo lysine derivatives. The fullerenes themselves were not soluble enough in aqueous solutions.
The adenosine conjugate had been synthesized using the same strategy used for the fullerenes, i.e., linkage to the epsilon amino groups of the lysines via an N-hydroxysuccinimide ester derivative.

[3] = tested on: anti-fullerene antibodies; assay: Double diffusion in agar; assay type: binding, BALB/c mice
Protocol: Immunization Procedure and Detection of Antibodies. BALB/c mice were immunized i.p. with 1-TG in complete Freund's adjuvant for the primary immunization and incomplete adjuvant for subsequent immunizations.
as §1
Specificity of the response was determined by two procedures: Double diffusion in agar and competitive inhibition, as determined by ELISA using RSA and BSA conjugates of the fullerenes, as well as the oligo lysine derivatives. The fullerenes themselves were not soluble enough in aqueous solutions.

In the case of `c12c3c4c5c1c1c6c7c2c2c8c3c3c9c4c4c%10c5c5c1c1c6c6c%11c7c2c2c7c8c3c3c8c9c4c4c9c%10c5c5c1c1c6c6c%11c2c2c7c3c3c8c4c4c9c5c1c1c6c2c3c41` [Compound C60, fullerene-C60], the “effect on rate of thymidine uptake” value [1] is given as “no effect”.

With `[166Ho+3]` [^166Ho^3+] the “excretion of 166Ho activity” value (Sprague-Dawley rats; after 24 hours) was “essentially all ^166Ho activity had been excreted” and the urinary clearance (Sprague-Dawley rats; commencing 1 hour post-injection) was “rapid ^166Ho^3+ urinary clearance”.

For Gd@C82(OH)x, the air sensitivity (Air sensitivity) was “does not appear to be air sensitive”.

In the case of Rabbit Serum Albumin [RSA], the “inhibition of antibody binding to 1-RSA” value [2] is reported as “No inhibition”.

With bovine thyroglobulin [TG] the “precipitation with immune serum in double diffusion in agar” value ([3]; TG solution diluted 5-fold) was “a line of precipitation was seen”, the “precipitation with immune serum in double diffusion in agar” value ([3]; serum of mice immunized with 1-TG) was “no visible precipitate” and the “inhibition of antibody binding to 1-RSA” value [2] was “No inhibition”.
